How the values were obtained:
[1] = tested on: Caco-2; test: cell viability relative to DMSO; higher = less toxic; settings: 72 h
[2] = tested on: Calu-3; test: as above; settings: 72 h
[3] = tested on: HepG2; test: as above; settings: 72 h
[4] = tested on: U2OS; test: as above; settings: 72 h
[5] = tested on: Vero E6; test: as above; settings: 72 h
[6] = tested on: Caco-2; test: relative viability EC50 (midpoint between 100% and the lowest measured viability); higher = less toxic; settings: 72 h
[7] = tested on: Calu-3; test: as above; settings: 72 h
[8] = tested on: HepG2; test: as above; settings: 72 h
[9] = tested on: U2OS; test: as above; settings: 72 h
[10] = tested on: Vero E6; test: as above; settings: 72 h
[11] = tested on: Caco-2; test: drug sensitivity score (DSS) for viability; higher = more toxic; extreme values may be limits of the assay; settings: 72 h
[12] = tested on: Calu-3; test: as above; settings: 72 h
[13] = tested on: HepG2; test: as above; settings: 72 h
[14] = tested on: U2OS; test: as above; settings: 72 h
[15] = tested on: Vero E6; test: as above; settings: 72 h
[16] = tested on: A549-ACE2 infected with SARS-CoV-2; test: cell count relative to DMSO; higher = less toxic; settings: 24 h
[17] = tested on: A549-ACE2 infected with SARS-CoV-2; test: SARS-CoV-2 infection rate relative to DMSO; higher = more infection; settings: 24 h
[18] = tested on: A549-ACE2; test: drug-induced phospholipidosis relative to tamoxifen; higher = more phospholipidosis
[19] = tested on: A549-ACE2 infected with SARS-CoV-2; test: morphology score (similarity to uninfected cells); higher = more like uninfected cells; settings: 24 h

CCOC(=O)c1c(C)n(C)c2ccc(O)cc12 [mecarbinate]
cell viability [%]
Settings	[1]	[2]	[3]	[4]	[5]
1 nM	95.1	101	107	97.1	99.7
10 nM	98.9	101	104	102	98.4
100 nM	96	98.6	105	94.6	100
1000 nM	103	90.6	97.8	100	92.9
10000 nM	105	106	107	107	109

Settings	drug sensitivity score	relative viability EC50 [µM]
[6]	–	> 10
[7]	–	> 10
[8]	–	> 10
[9]	–	> 10
[10]	–	> 10
[11]	0	–
[12]	0	–
[13]	0	–
[14]	0	–
[15]	0	–

c1cnc2c([O][Ga]([O]c3cccc4cccnc34)[O]c3cccc4cccnc34)cccc2c1 [gallium-triquinolin-8-olate]
Settings	SARS-CoV-2 infection rate, [17] [%]	cell count, [16] [%]	cell viability, [1] [%]	cell viability, [2] [%]	cell viability, [3] [%]	cell viability, [4] [%]	cell viability, [5] [%]	morphology score, [19]
1 nM	–	–	94.3	95.9	96.5	97	116	–
10 nM	–	–	104	111	102	105	103	–
100 nM	–	–	89.1	97.6	118	100	106	–
0.3 µM	98	103	–	–	–	–	–	0.25
1000 nM	–	–	116	110	97.1	102	102	–
3 µM	50	73	–	–	–	–	–	0.64
10 µM	23	69	–	–	–	–	–	0.75
10000 nM	–	–	6.6	51.7	2.2	19.7	87.7	–
30 µM	23	35	–	–	–	–	–	0.35

drug-induced phospholipidosis [%], [18]
Settings	0.3 µM	0.833333 µM	3.33333 µM
24 h	3.04	1.03	-5.09
48 h	1.4	-0.94	–
72 h	3.03	0.0941	–

Settings	drug sensitivity score	relative viability EC50 [µM]
[6]	–	3.85
[8]	–	2.96
[9]	–	3.34
[10]	–	> 10
[11]	4.3	–
[12]	2	–
[13]	5.8	–
[14]	4.2	–
[15]	0	–

CC1(C)[C@@H](O)CC[C@]2(C)[C@H]3C(=O)C=C4[C@@H]5C[C@@](C)(C(=O)O)CC[C@]5(C)CC[C@@]4(C)[C@]3(C)CC[C@@H]12 [enoxolone]
cell viability [%]
Settings	[1]	[2]	[3]	[4]	[5]
1 nM	96.6	110	75.2	99.4	93.1
10 nM	101	106	90.9	93.2	99.8
100 nM	97	98.6	87	95.4	95.2
1000 nM	87.2	105	95.9	99.6	103
10000 nM	96.3	99.1	96	98.6	92.5

Settings	drug sensitivity score	relative viability EC50 [µM]
[6]	–	> 10
[7]	–	> 10
[8]	–	> 10
[9]	–	> 10
[10]	–	> 10
[11]	0	–
[12]	0	–
[13]	0	–
[14]	0	–
[15]	0	–

CC(C)(C#N)c1cc(Cn2cncn2)cc(C(C)(C)C#N)c1 [anastrozole]
cell viability [%]
Settings	[1]	[2]	[3]	[4]	[5]
1 nM	89.4	97.1	89.5	92.7	94
10 nM	101	98.7	94.3	98.3	99.2
100 nM	92.9	93.8	96.1	96.3	97.7
1000 nM	96.9	116	97.5	104	99.3
10000 nM	95.8	103	96.4	113	107

Settings	drug sensitivity score	relative viability EC50 [µM]
[6]	–	> 10
[7]	–	> 10
[8]	–	> 10
[9]	–	> 10
[10]	–	> 10
[11]	0	–
[12]	0	–
[13]	0	–
[14]	0	–
[15]	0	–

COc1cc2c(cc1OC)CN(C(=O)[C@@H](NCc1ccncc1)C(C)(C)C)CC2 [TCS-OX2-29]
cell viability [%]
Settings	[1]	[2]	[3]	[4]	[5]
1 nM	96.9	114	101	94.6	100
10 nM	95.2	88.9	93.1	100	91.9
100 nM	97.3	103	103	92.6	96.8
1000 nM	99.2	98.6	94.3	98.3	93.9
10000 nM	91.1	91.7	102	99.7	96.9

Settings	drug sensitivity score	relative viability EC50 [µM]
[6]	–	> 10
[7]	–	> 10
[8]	–	> 10
[9]	–	> 10
[10]	–	> 10
[11]	0	–
[12]	0	–
[13]	0	–
[14]	0	–
[15]	0	–

C[C@](N)(Cc1ccc(O)cc1)C(=O)O [metirosine]
cell viability [%]
Settings	[1]	[2]	[3]	[4]	[5]
1 nM	97.7	112	86.6	101	95.8
10 nM	96.9	113	97.3	96	94.8
100 nM	93.5	106	96.4	101	95.1
1000 nM	88.1	97.3	97.1	96	95.9
10000 nM	94.8	99.5	91.4	99.5	96.4

Settings	drug sensitivity score	relative viability EC50 [µM]
[6]	–	> 10
[7]	–	> 10
[8]	–	> 10
[9]	–	> 10
[10]	–	> 10
[11]	0	–
[12]	0	–
[13]	0	–
[14]	0	–
[15]	0	–
